Reference: US9453026B2, “ACC inhibitors and uses thereof” (Gilead Apollo, Inc., priority 2011, dated 2016)
Like-named read-outs stand apart in the source and are kept apart here.

Columns and labels:
[1] = molecular target: ACC1 (Homo sapiens, UniProt Q13085); assay: In vitro ACC1 inhibition assay (ADP-Glo); format: biochemical
How it was run: (§1)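 Enzyme (human ACC1 or ACC2) and compound, serially diluted 1:3 over 11 points from a 600 uM DMSO stock, were preincubated 15 min before substrate addition.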

[2] = molecular target: ACC2 (Homo sapiens, UniProt O00763); assay: In vitro ACC2 inhibition assay (ADP-Glo); format: biochemical
ACC2, sequence (O00763 whole entry, species assumed): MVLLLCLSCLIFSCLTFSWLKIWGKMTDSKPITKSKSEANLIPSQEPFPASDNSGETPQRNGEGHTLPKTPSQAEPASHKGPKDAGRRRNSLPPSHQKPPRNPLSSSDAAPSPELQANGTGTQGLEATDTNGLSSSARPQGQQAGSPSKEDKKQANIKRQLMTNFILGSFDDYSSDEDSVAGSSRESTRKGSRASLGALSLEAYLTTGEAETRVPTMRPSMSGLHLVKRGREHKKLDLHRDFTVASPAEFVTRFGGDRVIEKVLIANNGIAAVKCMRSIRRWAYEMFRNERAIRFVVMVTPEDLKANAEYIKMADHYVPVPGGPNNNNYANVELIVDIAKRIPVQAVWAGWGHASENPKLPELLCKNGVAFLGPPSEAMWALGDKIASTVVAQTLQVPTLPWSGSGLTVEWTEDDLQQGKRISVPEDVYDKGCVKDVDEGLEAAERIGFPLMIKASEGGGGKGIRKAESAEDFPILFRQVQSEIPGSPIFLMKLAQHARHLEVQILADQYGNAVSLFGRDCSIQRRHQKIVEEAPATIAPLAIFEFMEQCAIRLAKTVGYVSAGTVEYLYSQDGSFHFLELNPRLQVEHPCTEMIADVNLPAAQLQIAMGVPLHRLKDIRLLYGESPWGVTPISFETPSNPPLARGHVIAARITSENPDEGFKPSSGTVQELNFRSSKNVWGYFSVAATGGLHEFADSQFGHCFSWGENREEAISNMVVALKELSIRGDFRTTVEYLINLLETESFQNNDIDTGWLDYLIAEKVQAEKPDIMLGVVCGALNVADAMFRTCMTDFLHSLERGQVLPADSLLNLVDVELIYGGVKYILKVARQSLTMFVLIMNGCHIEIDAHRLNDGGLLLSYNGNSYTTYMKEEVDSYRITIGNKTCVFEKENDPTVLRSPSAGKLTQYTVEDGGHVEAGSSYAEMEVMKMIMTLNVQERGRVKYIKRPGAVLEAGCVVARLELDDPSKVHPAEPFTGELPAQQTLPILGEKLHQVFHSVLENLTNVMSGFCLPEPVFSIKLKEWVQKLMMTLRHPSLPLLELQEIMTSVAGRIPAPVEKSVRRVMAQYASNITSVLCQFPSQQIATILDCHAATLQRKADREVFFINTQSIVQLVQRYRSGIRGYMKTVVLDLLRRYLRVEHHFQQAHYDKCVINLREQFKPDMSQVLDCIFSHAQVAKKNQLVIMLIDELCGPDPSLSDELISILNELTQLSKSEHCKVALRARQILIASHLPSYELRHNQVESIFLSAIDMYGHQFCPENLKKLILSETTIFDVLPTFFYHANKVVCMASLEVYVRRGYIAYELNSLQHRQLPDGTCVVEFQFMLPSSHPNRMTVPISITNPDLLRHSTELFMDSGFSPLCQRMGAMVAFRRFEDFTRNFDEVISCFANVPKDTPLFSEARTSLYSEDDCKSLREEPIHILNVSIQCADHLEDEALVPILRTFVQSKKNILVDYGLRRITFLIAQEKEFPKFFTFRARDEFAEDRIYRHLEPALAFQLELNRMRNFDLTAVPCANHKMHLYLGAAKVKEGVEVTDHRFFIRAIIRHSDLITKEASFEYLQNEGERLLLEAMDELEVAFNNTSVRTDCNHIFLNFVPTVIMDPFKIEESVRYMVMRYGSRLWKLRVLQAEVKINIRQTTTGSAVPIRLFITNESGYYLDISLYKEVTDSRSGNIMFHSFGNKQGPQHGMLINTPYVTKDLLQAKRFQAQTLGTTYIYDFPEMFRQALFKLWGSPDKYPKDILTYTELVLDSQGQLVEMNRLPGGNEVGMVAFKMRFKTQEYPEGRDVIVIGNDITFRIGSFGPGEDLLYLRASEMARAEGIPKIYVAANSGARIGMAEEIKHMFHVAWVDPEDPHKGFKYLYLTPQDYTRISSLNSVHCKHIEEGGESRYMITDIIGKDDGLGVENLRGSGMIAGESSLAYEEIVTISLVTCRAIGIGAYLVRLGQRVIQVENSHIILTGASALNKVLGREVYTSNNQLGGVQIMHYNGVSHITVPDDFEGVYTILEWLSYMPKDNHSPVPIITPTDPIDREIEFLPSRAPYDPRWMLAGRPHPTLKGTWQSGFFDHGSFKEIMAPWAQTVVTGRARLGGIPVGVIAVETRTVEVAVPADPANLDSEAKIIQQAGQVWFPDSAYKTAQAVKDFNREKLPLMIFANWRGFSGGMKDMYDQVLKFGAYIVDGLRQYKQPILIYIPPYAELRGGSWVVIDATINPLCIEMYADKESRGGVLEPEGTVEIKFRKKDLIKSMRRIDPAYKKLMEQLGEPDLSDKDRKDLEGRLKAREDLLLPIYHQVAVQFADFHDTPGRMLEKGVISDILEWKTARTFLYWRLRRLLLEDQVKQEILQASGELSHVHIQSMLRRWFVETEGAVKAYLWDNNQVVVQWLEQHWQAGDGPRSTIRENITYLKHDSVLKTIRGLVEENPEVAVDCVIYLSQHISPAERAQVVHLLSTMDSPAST
How it was run: as §1

Structure (SMILES): COc1ccccc1[C@H](Cn1c(=O)n(C(C)(C)C(=O)O)c(=O)c2c(C)c(-c3ncco3)sc21)OC[C@@H](C)O [I-258, 2-[1-[(2R)-2-[(2R)-2-hydroxypropoxy]-2-(2-methoxyphenyl)ethyl]-5-methyl-6-(1,3-oxazol-2-yl)-2,4-dioxo-1H,2H,3H,4H-thieno[2,3-d]pyrimidin-3-yl]-2-methylpropanoic acid]
- IC50 ([1]; read-out: ACC1): < 100 nM
- IC50 ([2]; read-out: ACC2): < 100 nM

Structure (SMILES): COc1ccccc1[C@H](Cn1c(=O)n(C(C)(C)C(=O)O)c(=O)c2c(C)c(-c3ncco3)sc21)OCC1CCOCC1 [I-259, 2-[1-[(2R)-2-(2-methoxyphenyl)-2-(oxan-4-ylmethoxy)ethyl]-5-methyl-6-(1,3-oxazol-2-yl)-2,4-dioxo-1H,2H,3H,4H-thieno[2,3-d]pyrimidin-3-yl]-2-methylpropanoic acid]
- IC50 ([1]; read-out: ACC1): < 100 nM
- IC50 ([2]; read-out: ACC2): < 100 nM

Structure (SMILES): COc1ccccc1[C@H](Cn1c(=O)n(C(C)(C)C(N)=O)c(=O)c2c(C)c(-c3ncco3)sc21)OCC1CCOCC1 [I-260, 2-[1-[(2R)-2-(2-methoxyphenyl)-2-(oxan-4-ylmethoxy)ethyl]-5-methyl-6-(1,3-oxazol-2-yl)-2,4-dioxo-1H,2H,3H,4H-thieno[2,3-d]pyrimidin-3-yl]-2-methylpropanamide]
- IC50 ([1]; read-out: ACC1): < 100 nM
- IC50 ([2]; read-out: ACC2): < 100 nM

Structure (SMILES): Cc1c(-c2ncco2)sc2c1c(=O)n(C(C)(C)C(=O)O)c(=O)n2C[C@H](OC1CCOCC1)c1ccccc1OC(F)F [I-264, 2-[1-[(2R)-2-[2-(difluoromethoxy)phenyl]-2-(oxan-4-yloxy)ethyl]-5-methyl-6-(1,3-oxazol-2-yl)-2,4-dioxo-1H,2H,3H,4H-thieno[2,3-d]pyrimidin-3-yl]-2-methylpropanoic acid]
- IC50 ([1]; read-out: ACC1): < 100 nM
- IC50 ([2]; read-out: ACC2): < 100 nM

Structure (SMILES): Cc1c(-c2ncco2)sc2c1c(=O)n(C(C)(C)C(=O)O)c(=O)n2C[C@H](OC(C)C)c1ccccc1OC(F)F [I-267, 2-[1-[(2R)-2-[2-(difluoromethoxy)phenyl]-2-(propan-2-yloxy)ethyl]-5-methyl-6-(1,3-oxazol-2-yl)-2,4-dioxo-1H,2H,3H,4H-thieno[2,3-d]pyrimidin-3-yl]-2-methylpropanoic acid]
- IC50 ([1]; read-out: ACC1): < 100 nM
- IC50 ([2]; read-out: ACC2): < 100 nM

Structure (SMILES): Cc1c(-c2ncco2)sc2c1c(=O)n(C(C)(C)C(N)=O)c(=O)n2C[C@H](OC(C)C)c1ccccc1OC(F)F [I-268, 2-[1-[(2R)-2-[2-(difluoromethoxy)phenyl]-2-(propan-2-yloxy)ethyl]-5-methyl-6-(1,3-oxazol-2-yl)-2,4-dioxo-1H,2H,3H,4H-thieno[2,3-d]pyrimidin-3-yl]-2-methylpropanamide]
- IC50 ([1]; read-out: ACC1): < 100 nM
- IC50 ([2]; read-out: ACC2): < 100 nM

Structure (SMILES): [2H]C([2H])([2H])Oc1ccccc1[C@H](Cn1c(=O)n(C(C)(C)C(=O)O)c(=O)c2c(C)c(-c3ncco3)sc21)OC1CCOCC1 [I-271, 2-[1-[(2R)-2-[2-(d3)methoxyphenyl]-2-(oxan-4-yloxy)ethyl]-5-methyl-6-(1,3-oxazol-2-yl)-2,4-dioxo-1H,2H,3H,4H-thieno[2,3-d]pyrimidin-3-yl]-2-methylpropanoic acid]
- IC50 [1]: < 100 nM
- IC50 [2]: < 100 nM

Structure (SMILES): Cc1c(-c2ncco2)sc2c1c(=O)n(C(C)(C)C(N)=O)c(=O)n2C[C@H](OC1CCOCC1)c1ccccc1OC(F)F [I-274, 2-[1-[(2R)-2-[2-(difluoromethoxy)phenyl]-2-(oxan-4-yloxy)ethyl]-5-methyl-6-(1,3-oxazol-2-yl)-2,4-dioxo-1H,2H,3H,4H-thieno[2,3-d]pyrimidin-3-yl]-2-methylpropanamide]
- IC50 ([1]; read-out: ACC1): < 100 nM
- IC50 ([2]; read-out: ACC2): < 100 nM

Structure (SMILES): COc1ccccc1[C@H](Cn1c(=O)n(C(C)(C)C(=O)O)c(=O)c2c(C)c(-c3ncco3)sc21)O[C@H]1CC[C@H](O)CC1 [I-277, 2-[1-[(2R)-2-[(4-hydroxycyclohexyl)oxy]-2-(2-methoxyphenyl)ethyl]-5-methyl-6-(1,3-oxazol-2-yl)-2,4-dioxo-1H,2H,3H,4H-thieno[2,3-d]pyrimidin-3-yl]-2-methylpropanoic acid]
- IC50 ([1]; read-out: ACC1): < 100 nM
- IC50 ([2]; read-out: ACC2): < 100 nM

Structure (SMILES): COc1ccccc1[C@H](Cn1c(=O)n(C(C)(C)C(N)=O)c(=O)c2c(C)c(-c3ncco3)sc21)O[C@H]1CC[C@@H](O)CC1 [I-279, 2-[1-[(2R)-2-[(4-hydroxycyclohexyl)oxy]-2-(2-methoxyphenyl)ethyl]-5-methyl-6-(1,3-oxazol-2-yl)-2,4-dioxo-1H,2H,3H,4H-thieno[2,3-d]pyrimidin-3-yl]-2-methylpropanamide]
- IC50 ([1]; read-out: ACC1): < 100 nM
- IC50 ([2]; read-out: ACC2): < 100 nM

Structure (SMILES): Cc1ccccc1[C@H](Cn1c(=O)n(C(C)(C)C(=O)O)c(=O)c2c(C)c(-c3ncco3)sc21)OC1CCOCC1 [I-282, 2-methyl-2-[5-methyl-1-[(2R)-2-(2-methylphenyl)-2-(oxan-4-yloxy)ethyl]-6-(1,3-oxazol-2-yl)-2,4-dioxo-1H,2H,3H,4H-thieno[2,3-d]pyrimidin-3-yl]propanoic acid]
- IC50 ([1]; read-out: ACC1): < 100 nM
- IC50 ([2]; read-out: ACC2): < 100 nM

Structure (SMILES): COc1ccccc1[C@H](Cn1c(=O)n(CC(=O)O)c(=O)c2c(C)c(-c3ncco3)sc21)OC1CCOCC1 [I-286, 2-[1-[(2R)-2-(2-methoxyphenyl)-2-(oxan-4-yloxy)ethyl]-5-methyl-6-(1,3-oxazol-2-yl)-2,4-dioxo-1H,2H,3H,4H-thieno[2,3-d]pyrimidin-3-yl]acetic acid]
- IC50 ([1]; read-out: ACC1): < 100 nM
- IC50 ([2]; read-out: ACC2): < 100 nM

Structure (SMILES): COc1ccccc1[C@H](Cn1c(=O)n(CC(C)(C)O)c(=O)c2c(C)c(-c3ncco3)sc21)OC1CCOCC1 [I-287, 3-(2-hydroxy-2-methylpropyl)-1-[(2R)-2-(2-methoxyphenyl)-2-(oxan-4-yloxy)ethyl]-5-methyl-6-(1,3-oxazol-2-yl)-1H,2H,3H,4H-thieno[2,3-d]pyrimidine-2,4-dione]
- IC50 ([1]; read-out: ACC1): < 100 nM
- IC50 ([2]; read-out: ACC2): < 100 nM

Structure (SMILES): COc1ccccc1[C@H](Cn1c(=O)n(CC(N)=O)c(=O)c2c(C)c(-c3ncco3)sc21)OC1CCOCC1 [I-288]
- IC50 ([1]; read-out: ACC1): < 100 nM
- IC50 ([2]; read-out: ACC2): < 100 nM

Structure (SMILES): COc1ccccc1[C@H](Cn1c(=O)n(Cc2nnc[nH]2)c(=O)c2c(C)c(-c3ncco3)sc21)OC1CCOCC1 [I-289, 1-[(2R)-2-(2-methoxyphenyl)-2-(oxan-4-yloxy)ethyl]-5-methyl-6-(1,3-oxazol-2-yl)-3-(4H-1,2,4-triazol-3-ylmethyl)-1H,2H,3H,4H-thieno[2,3-d]pyrimidine-2,4-dione]
- IC50 ([1]; read-out: ACC1): < 100 nM
- IC50 ([2]; read-out: ACC2): < 100 nM

Structure (SMILES): COc1ccccc1[C@H](Cn1c(=O)n(C(C)(C)CO)c(=O)c2c(C)c(-c3ncco3)sc21)OC1CCOCC1 [I-290, 3-(1-hydroxy-2-methylpropan-2-yl)-1-[(2R)-2-(2-methoxyphenyl)-2-(oxan-4-yloxy)ethyl]-5-methyl-6-(1,3-oxazol-2-yl)-1H,2H,3H,4H-thieno[2,3-d]pyrimidine-2,4-dione]
- IC50 ([1]; read-out: ACC1): < 100 nM
- IC50 ([2]; read-out: ACC2): < 100 nM

Structure (SMILES): Cc1c(-c2ncco2)sc2c1c(=O)n(C(C)(C)C(=O)O)c(=O)n2C[C@H](OC1CCOCC1)c1ccccc1OC(C)C [I-291, 2-methyl-2-[5-methyl-1-[(2R)-2-(oxan-4-yloxy)-2-[2-(propan-2-yloxy)phenyl]ethyl]-6-(1,3-oxazol-2-yl)-2,4-dioxo-1H,2H,3H,4H-thieno[2,3-d]pyrimidin-3-yl]propanoic acid]
- IC50 ([1]; read-out: ACC1): < 100 nM
- IC50 ([2]; read-out: ACC2): < 100 nM

Structure (SMILES): Cc1c(-c2ncco2)sc2c1c(=O)n(C(C)(C)C(N)=O)c(=O)n2C[C@H](OC1CCOCC1)c1ccccc1OC(C)C [I-292, 2-methyl-2-[5-methyl-1-[(2R)-2-(oxan-4-yloxy)-2-[2-(propan-2-yloxy)phenyl]ethyl]-6-(1,3-oxazol-2-yl)-2,4-dioxo-1H,2H,3H,4H-thieno[2,3-d]pyrimidin-3-yl]propanamide]
- IC50 ([1]; read-out: ACC1): < 100 nM
- IC50 ([2]; read-out: ACC2): < 100 nM
